Measured values reported in patent publication US9115061B2, “Naphthalene-based inhibitors of anti-apoptotic proteins” (BURNHAM INSTITUTE FOR MEDICAL RESEARCH, priority 2007, dated 2015).

Legend:
[1] = system: MCF7 cells; assay: XTT dye reduction assay; assay type: cell-based, human; settings: three days
Procedure: (§1) The effects of the compounds on viability of tumor cells in culture were monitored by using XTT assays with MCF7 and ZR75-1 cell lines. MCF7 cells were grown in DMEM containing 10% fetal bovine serum, penicillin/streptomycin, supplemented with 10^−10 M insulin, 1 mM sodium pyruvate and glutamine. ZR75-1 cells were grown in RPMI containing 10% fetal bovine serum, penicillin/streptomycin, supplemented with HEPES buffer, 1 mM sodium pyruvate and glutamine. Cells were regularly tested for mycoplasma contamination. Cells were seeded triplicates at an initial cell density of 1,000 cells per well. Blank wells received no cells.
(§2) Relative numbers of viable cells was determined by XTT assay. Briefly, in a 96-well plate, we added 50 μl of a mixture of 1 mg/ml of XTT (2,3-bis(2-methoxy-4-nitro-5-sulfophenyl)-5-[(phenylamino)carbonyl]-2H-tetrazolium hydroxide) (Polysciences, Washington, Pa.) containing 0.025 mM PMS (phenazine methosulfate) to each well. The 96-well plates were reincubated for an additional 4 hours to allow for XTT formazan production. Then, the contents of each plate were mixed and optical densities were determined at a wavelength of 450 nm (OD450). Net OD450 was determined after subtracting OD450 of blank wells. Low-passage HeLa cells (between passage number 10 and 20) were transfected with pcDNA3-BCL-XL or control pcDNA3 plasmids using Lipofectamine Plus reagent (Invitrogen) and selected in medium containing 800 μg/ml of G418. Immunoblot analysis of BCL-XL was accomplished as previously described.

[2] = system: ZR75-1 cells; assay: XTT dye reduction assay; assay type: cell-based, human; settings: three days
Procedure: as §1, §2

[3] = biological target: BCL-XL (Homo sapiens (Human), UniProt Q07817); assay: Fluorescence polarization assay with fluorescein-labeled Bad peptide; assay type: binding; settings: Table 5
Sequence of BCL-XL (Q07817 whole entry): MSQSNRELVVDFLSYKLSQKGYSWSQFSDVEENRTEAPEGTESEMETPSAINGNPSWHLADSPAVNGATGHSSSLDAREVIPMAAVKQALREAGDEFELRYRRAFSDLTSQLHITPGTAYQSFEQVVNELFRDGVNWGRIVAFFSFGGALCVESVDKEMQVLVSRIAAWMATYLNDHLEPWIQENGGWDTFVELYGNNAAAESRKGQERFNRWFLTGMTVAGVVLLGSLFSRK
Procedure: FP A assays were conducted with a fluorescein-labeled Bad peptide (NL […] Corporation, Dublin, Calif.) using a LJL Analyst HT Molecular Devices Co., Sunnyvale, Calif.). […] The tubes were incubated for 5 minutes at room temperature and 20 μl each of reaction mixture was transferred to 96-well black PS, HE Microplate (LJL Biosystems Co). All assays were performed in quadruplicate, with blank wells receiving no Gossypol. […] Controls included dose-responses measurements in absence of the proteins, to assess any interactions between the compounds and the FITC-BH3 peptide. Eventual effects were taken into account by subtraction.

- IC50, cell viability MCF7 [1]: did not show appreciable activity
- IC50 [3]: 2200 nM
Compound: O=c1c(O)cccc2cc(O)c(O)c(O)c12 [Purpurogallin]
- IC50, cell viability ZR75-1 [2]: did not show appreciable activity
